Test results taken from PMC8232621, “Antimicrobial Activity of a Library of Thioxanthones and Their Potential as Efflux Pump Inhibitors” (Pharmaceuticals, 2021).
Several values for one entry are separate records, joined by “and”; a condition that tells them apart may be missing. Equal values may be shown once.

Experiments:
S. aureus 272123 [1] = test: Real-time ethidium bromide accumulation assay (efflux pump inhibition); format: cell-based, Staphylococcus aureus; design: key: RFI = (RFtreated − RFuntreated)/RFuntreated at minute 60; settings: compounds 50 µM, reserpine 25 µM, minute 60, EB 1 µg/mL
Experimental: (§1) The relative fluorescence index (RFI) was calculated based on the means of relative fluorescence units, and theses RFIs are depicted in Table 4.
(§2) The compounds were evaluated for their ability to inhibit the efflux of EB, an efflux pump substrate, in Salmonella enterica serovar Typhimurium SE03 and S. aureus 272123 strains, through real-time fluorimetry, monitoring the intracellular accumulation of EB, an efflux pump substrate. This was determined by the automated method using a CLARIOstar Plus plate reader (BMG Labtech, Ortenberg, Germany). Reserpine and CCCP were applied at 25 µM as positive controls, and the solvent DMSO was applied at 1% v/v. The bacterial strains were incubated in an appropriate culture media (TSB–S. aureus 272123; LB-B–SE03) at 37 °C until they reached an optical density (OD) of 0.6 at 600 nm. The culture was centrifuged at 13,000× g for 3 min, and the pellet was washed and resuspended with phosphate buffered saline (PBS, pH 7.4). The suspension was centrifuged again in the same conditions and resuspended in PBS.
(§3) Then, 50 µL of this solution were transferred into a 96-well black microtiter plate (Greiner Bio-One Hungary Kft, Mosonmagyaróvár, Fertősor, Hungary), and 50 µL of bacterial suspension (OD600 = 0.6) were added to each well. The plates were placed into the CLARIOstar plate reader, and the fluorescence was monitored at excitation and emission wavelengths of 530 nm and 600 nm, respectively, every minute for one hour on a real-time basis. From the real-time data, the activity of the compounds, namely the relative fluorescence index (RFI) of the last time point (minute 60) of the EB accumulation assay, was calculated according to the following equation:(1) RFI=RFtreated−RFuntreated/RFuntreated where RFtreated is the relative fluorescence (RF) at the last time point of EB accumulation curve in the presence of the compound, and RFuntreated is the RF at the last time point of the EB accumulation curve of the untreated control, having only the solvent (DMSO) control. The accumulation curves were designed using Microsoft Excel®. The samples were tested in triplicate, and the RFI presented comes from the average of these three values. The accumulation graphs present the mean of the RF at the last time point. The standard deviation (SD) was calculated automatically and included in the RF graphs.

S. marcescens = test: Quorum sensing inhibition assay (pigment production); format: cell-based, Serratia marcescens AS-1; settings: Serratia marcescens, read-out: Quorum Sensing Inhibition (mm) ± SD
Experimental: (§4) Concerning the QS inhibition assay, the sensor strain Chromobacterium violaceum CV026 and the AHL producer strain Sphingomonas paucimobilis Ezf 10-17 (EZF) were inoculated as parallel lines, and the AHL producers Chromobacterium violaceum wild-type 85 (wt85) and Serratia marcescens AS-1 were inoculated as a single line. The interaction between the strains and compounds 2–18 was evaluated as the reduction of pigment production, in millimeters (mm) (Table 5) with promethazine (PMZ) as a positive control.
(§5) The QS inhibitory effect of the compounds was examined on the EZF and the sensor CV026 strains, on the wt85 strain, and on S. marcescens. The method used was the parallel inoculation method, where pair combinations of the used sensor strain CV026 and the N-acyl-homoserine lactone (AHL) producing strain EZF were inoculated directly onto the LB*-A agar surface in parallel, at an approximate distance of 5 mm from each other. S. marcescens AS-1 and wt85 were inoculated as a single line. Filter paper disks (7 mm in diameter) were placed on the center of the inoculated line(s) and impregnated with 8 µL of a solution of 10 mM of the compounds. […] The agar plates were incubated at room temperature (20 °C) for 24−48 h. The QS inhibition was accessed visually, through the inhibition of pigment production. The discolored, but intact, bacterial colonies were measured with a ruler.

EZF + CV026 = test: Quorum sensing inhibition assay (pigment production), parallel inoculation; format: cell-based; settings: disk with 8 µL of 10 mM solution, read-out: Quorum Sensing Inhibition (mm) ± SD
Experimental: as §4, §5

SE03 [2] = test: Antibacterial activity, broth microdilution MIC; format: cell-based, Salmonella enterica serovar Typhimurium SL1344; settings: Salmonella enterica, read-out: Minimum Inhibitory Concentration (MIC)
Excerpt: (§6) The referred library of thioxanthones was initially tested for their antimicrobial activity against six bacterial strains: the Gram-negative Escherichia coli ATCC 25922, Pseudomonas aeruginosa ATCC 27853 and Salmonella enterica serovar Typhimurium SL1344 (SE03), with the acrA gene deleted, and the Gram-positive Staphylococcus aureus ATCC 29213, Enterococcus faecalis ATCC 29212 and the methicillin and ofloxacin-resistant clinical isolate S. aureus 272123. For the synergy assay, two clinically relevant isolates were used: the extended-spectrum β-lactamase (ESBL)-producing E. coli SA/2 [23] and the vancomycin-resistant E. faecalis (VRE) B3/101 [23]. The antibiotics used were cefotaxime (CTX) and vancomycin (VAN), respectively.
(§7) The minimum inhibitory concentration (MIC) for each compound was determined by broth microdilution method in a 96-well plate according to the Clinical and Laboratory Standard Institute (CLSI) guidelines. The medium used was MHB II. The concentrations tested ranged from 100 µM to 0.195 µM and were prepared from a stock solution of 10 mM in DMSO, for S. aureus 272123 and SE03; for the other strains, the concentrations tested ranged from 64 µg/mL to 4 µg/mL and were prepared from a stock solution of 10 mg/mL in DMSO. DMSO was used in subinhibitory concentrations (1% v/v). The MIC was determined by visual inspection.

S. aureus 272123 [3] = test: Antibacterial activity, broth microdilution MIC; format: cell-based; settings: Staphylococcus aureus, 272123, read-out: Minimum Inhibitory Concentration (MIC)
Excerpt: as §6, §7

S. aureus 272123 [4] = test: Inhibition of biofilm formation (crystal violet); format: cell-based, Staphylococcus aureus; settings: Staphylococcus aureus; S. aureus 272123; compounds 100 µM (compound 12 at 50 µM); 48 h; read-out: Biofilm Inhibition (%) ± SD
Experimental: Efflux mechanisms are one of the factors that can lead to biofilm-mediated resistance, along with slow growth and reduced penetration due to production of extracellular polysaccharides. […] Additionally, they can also modulate QS, through an influence in the transport of QS signal molecules. Thioxanthones 2–18 were tested for their potential for inhibiting biofilm formation by S. aureus ATCC 29213 and the multi-resistant S. aureus 272123. The biofilm inhibition, presented in percentage (%), was calculated based on the mean of absorbance units. Reserpine, which has previously been described as both an efflux pump inhibitor and an inhibitor of biofilm formation in Gram-positive bacteria was used as control in both strains.
The thioxanthone derivatives were tested for their ability to decrease the formation of biofilm. The bacterial strains used were the Gram-positive S. aureus […] and S. aureus 272123. The detection of the biofilm formation was carried out using the dye crystal violet (CV; 0.1% v/v). The initial inoculum was incubated in TSB overnight, and then diluted to an OD600 of 0.1. […] This meant that compound 12 was added at 50 µM, while the rest of the compounds were added at the concentration of 100 µM. The final volume in each well was 200 µL. Reserpine was used as a positive control, as it was the same compound used in the efflux pump inhibition assay and it has shown activity in the inhibition of biofilm formation in S. aureus strains. The plates were incubated at 30 °C for 48 h, with gentle stirring (100 rpm). After this incubation period, the TSB medium was discarded, and the plates were washed with tap water to remove unattached cells. Afterwards, 200 µL of a 0.1% v/v CV solution were added to the wells and incubated for 15 min at room temperature. Then, the CV solution was removed from the wells, and the plates were washed again with tap water, and 200 µL of a 70% ethanol solution was added to the wells. The biofilm formation was determined by measuring the OD600 using a Multiscan EX ELISA plate reader (Thermo Labsystems, Cheshire, WA, USA). The anti-biofilm effect of the compounds was expressed in the percentage (%) of decrease of biofilm formation.

SE03 [5] = test: Real-time ethidium bromide accumulation assay (efflux pump inhibition); format: cell-based, Salmonella enterica serovar Typhimurium SL1344; settings: compounds 50 µM (compound 12 at 17 µM), CCCP 25 µM, minute 60, EB 1 µg/mL
Experimental: as §1, §2, §3

S. aureus ATCC 29213 = test: Inhibition of biofilm formation (crystal violet); format: cell-based; settings: Staphylococcus aureus, ATCC29213, 48 h, S. aureus ATCC 29213, compounds 100 µM (compound 12 at 50 µM), read-out: Biofilm Inhibition (%) ± SD
wt85 = test: Quorum sensing inhibition assay (pigment production); format: cell-based, Chromobacterium violaceum wild-type 85; settings: Chromobacterium violaceum, read-out: Quorum Sensing Inhibition (mm) ± SD
Experimental: as §4, §5

[6] = Cytotoxicity in NIH/3T3 cell line (MTT assay); format: cell-based; settings: mouse, NIH/3T3 mouse fibroblast cells, read-out: IC50 (µM) ± SD, cytotoxicity
Experimental: Before each cytotoxicity assay using this cell line, cells were seeded in untreated 96-well flat-bottom microtiter plates, following a 4-hour incubation period in a humidified atmosphere (5% CO2, 95% air) at 37 °C [47]. […] Prior to the assay, the cells were seeded for 4 h using 1 × 10^4 cells/well. […] The plates were incubated for 24 h, after which a solution of MTT in PBS was added to each well and incubated for another 4 h. After this, 100 μL of SDS (10% in a 0.01 M HCl solution) was added to each well and incubated overnight at 37 °C. Doxorubicin was used as a positive control. Cell growth was determined in quadruplicate by measuring OD at λ = 540 nm (reference 630 nm) in a Multiscan EX ELISA reader (Thermo Labsystems, Cheshire, WA, USA). […] (2) 100−ODsample−ODmedium control/ODcell control−ODmedium control×100 […]

E. faecalis B3/101 = test: Synergy with vancomycin (antibiotic MIC in presence of compound); format: cell-based, Enterococcus faecalis
Excerpt: as §6
The combined effect of the compounds and clinically relevant antimicrobial drugs was evaluated by determining the antibiotic’s MIC in the presence of each compound. […] The antibiotic tested was serially diluted, whereas the concentration of each compound was kept fixed. In the case of compound 12, the concentration used was 8 µg/mL. For all other compounds, the concentration used was 64 µg/mL. Antibiotic MICs were determined as described above.

Structure (SMILES)	RFI ± SD (S. aureus 272123 [1])	zone of inhibition at 10000 µM (S. marcescens) [mm]	zone of inhibition at 10000 µM (EZF + CV026) [mm]	inhibition at 100 µM (S. aureus ATCC 29213) [%]	zone of inhibition at 10000 µM (wt85) [mm]	other results
CCCOc1ccc(N2CCN(C(C)=O)CC2)c2c(=O)c3ccccc3sc12 [Compound 7]	−0.10 ± 0.02	0	30 ± 0.5	0	0	MIC (SE03 [2]): > 100 µM; MIC (S. aureus 272123 [3]): > 100 µM; inhibition at 100 µM (S. aureus 272123 [4]): 47.1 ± 7.54%; RFI ± SD (SE03 [5]): 0.49 ± 0.11
COc1cccc2c1C(=O)c1c(O)c3c(c(O)c1C2=O)C[C@@](O)(C(=O)CO)C[C@@H]3O[C@H]1C[C@H](N)[C@H](O)[C@H](C)O1 [Doxorubicin, doxorubicin, reference compound]	–	–	–	–	–	IC50 at 24 h [6]: 12.1 ± 0.81 µM
CC(CN1c2ccccc2Sc2ccccc21)N(C)C (stereo not shown) [PMZ, promethazine, reference compound]	–	18 ± 0.8	41 ± 0.5	–	40 ± 0.1	–
COC(=O)[C@H]1[C@H]2C[C@@H]3c4[nH]c5cc(OC)ccc5c4CCN3C[C@H]2C[C@@H](OC(=O)c2cc(OC)c(OC)c(OC)c2)[C@@H]1OC [Reserpine, reserpine, reference compound]	0.50 ± 0.04	–	–	30.4	–	–
CN[C@H](CC(C)C)C(=O)N[C@H]1C(=O)N[C@@H](CC(N)=O)C(=O)N[C@H]2C(=O)N[C@H]3C(=O)N[C@H](C(=O)N[C@H](C(=O)O)c4cc(O)cc(O)c4-c4cc3ccc4O)[C@H](O)c3ccc(c(Cl)c3)Oc3cc2cc(c3O[C@@H]2O[C@H](CO)[C@@H](O)[C@H](O)[C@H]2O[C@H]2C[C@](C)(N)[C@H](O)[C@H](C)O2)Oc2ccc(cc2Cl)[C@H]1O [VAN, vancomycin]	–	–	–	–	–	VAN MIC (antibiotic alone) (E. faecalis B3/101): 707 µM and 1024 µg/mL
